The results in this text go back to patent US5629430A, “Trifluoromethylpyrroloindolecarboxylic acid ester and process for production thereof” (Kyorin Pharmaceutical Co., Ltd., priority 1992, dated 1997).

Values after ≈ are worked out from the molar mass of the structure shown. Where a name gives a salt, the structure may show the parent alone. Read-outs that look alike come from different tables or passages of the source.

The subject of experiment [1] is Sarcoma-180 cells. The experiment can be described thus: Antineoplastic activity, mice having Sarcoma-180 cells transplanted subcutaneously. Type of experiment: in vivo, mouse (female, CDR strain). The settings on record: Mus musculus, Sarcoma-180, iv, 144 h, read-out: T/C (average tumor weight, dosed vs. solvent-dosed control); for response vs control in vivo at 0.125 mg/kg: i.v. 0.125 mg/kg single dose. The method, then: The test compound was dissolved in dimethylsulfoxide, and the solution was adequately diluted with 10% Emulfore EL620(produced by Rhone Poulenc Co.) to prepare the test compound solution. The antineoplastic activity was evaluated as below.
To the lateral region of a female mouse (CDR strain, 5 to 6 week age), 3.6×10^6 to 5×10^6 Sarcoma-180 cells were transplanted subcutaneously. Next day, the test medicine solution was injected into the tail vein in a single dose. Eight to twelve mice were employed for the solvent-dosed control group, and five mice were employed for the dosed group. Six days after the dosage, the tumor was cut out, and the weight thereof was measured. The antineoplastic effect was evaluated by the ratio (T/C) of the average tumor weight of the dosed group (T) to the average tumor weight of the solvent-dosed control group (C).

Experiment [2] deals with P388 mouse leukemia cells. Nature of the experiment: Activity against tumor cell growth (P388, MTT, 72 h). It is filed as cell-based. The settings on record: P388 mouse leukemia cells, 72 h, 37° C., MTT; read-out: IC50 (50% growth inhibition concentration). The method, then:
Using a culture medium RPMI1640 supplemented with 10% inactivated bovine fetal serum, 2 mM glutamine, 100 μ/ml kanamycin sulfate, and 5 μM 2-hydroxyethyldisulfide (This culture medium is hereinafter referred to simply as "culture medium"), P388 mouse leukemia cells were diluted to a concentration of 1.5×10^5 cells/ml in the culture medium, and were placed in each well of 96-well multiplate in 60 μl portions. Separately, the test compound was dissolved in dimethylsulfoxide and was adequately diluted with the culture medium. The diluted solution containing test compound was added to the wells of the above plate respectively in 60 μl portions. Then the cells were incubated in a CO2 -incubator (5% CO2, 37° C.) for 72 hours.
The surviving cell numbers were measured according to the Mosmann's method (J. Immunol. Meth., 65 55-63, 1983) as follows. A 2.5 mg/ml solution of MTT (3-[4,5-dimethylthiazol-2-yl]-2,5-diphenyltetrazolium bromide) in Dulbecco's phosphate buffer solution (PBS) was prepared and added to each of the wells by 20 μl. The cells were further incubated for 3 hours. A 150 μl portion of 0.04N hydrochloric acid-isopropanol solution was added to each of the wells, and MTT-formazane formed was allowed to dissolve by pipetting. The absorbance of the solutions was measured at 540 nm taking the no-cell-containing [solution as the background. The 50% growth inhibition concentration (ICs50) was calculated from ratio of the absorbances of the treated samples to the absorbance of the no-medicine-treated sample, and from the concentration of the test compound.

[3] abbreviates: tumor weighed six days after dosage.
[4] abbreviates: i.v. 0.25 mg/kg single dose, tumor weighed six days after dosage.

For `COC(=O)c1c(C(F)(F)F)[nH]c2c(O)cc3c(c12)C(CCl)CN3C(=O)c1cc2cc(NC(=O)c3ccc4ccccc4c3)ccc2[nH]1` (stereo not drawn) [Example 15, Methyl 1-chloromethyl-5-hydroxy-3-[5-[(naphthalene-3-ylcarbonyl)amino]-1H-indol-2-ylcarbonyl]-7-trifluoromethyl-1,2,3,6-tetrahydropyrrolo[3,2-e]indole-8-carboxylate], in experiment [1] (i.v. 0.5 mg/kg single dose, tumor weighed six days after dosage), the response vs control in vivo at 0.5 mg/kg was 11%. The IC50 in experiment [2] was 0.83 ng/mL (≈ 1.26 nM).

On to `COC(=O)c1c(C(F)(F)F)[nH]c2c1C13CC1CN(C(=O)c1cc4cc(NC(=O)c5cc6c(OC)c(OC)c(OC)cc6cn5)ccc4[nH]1)C3=CC2=O` (stereo not drawn) [Example 32, Methyl 6-trifluoromethyl-2-[5-[(5,6,7-trimethoxyisoquinolin-3-ylcarbonyl)amino]-1H-indol-2-ylcarbonyl]-1,2,8,8a-tetrahydrocyclopropa[c]pyrrolo[3,2e]indol-4 (5H)-one-7-carboxylate], for which the response vs control in vivo at 0.125 mg/kg in experiment [1] (setting [3]) worked out at 23%. In experiment [2], the IC50 was 0.09 ng/mL (≈ 0.126 nM).

As for `COC(=O)c1c(C(F)(F)F)[nH]c2c1C13CC1CN(C(=O)c1cc4cc(NC(=O)c5cc6c(OC)c(OC)c(OC)cc6[nH]5)ccc4[nH]1)C3=CC2=O` (stereo not drawn) [Example 28, Methyl 6-trifluoromethyl-2-[5-[(4,5,6-trimethoxy-1-H-indol-2-ylcarbonyl)amino]-1H-indol-2-ylcarbonyl]-1,2,8,8a-tetrahydrocyclopropa[c]pyrrolo[3,2-e]indole-4(5H)-one-7-carboxylate], the response vs control in vivo at 0.25 mg/kg in experiment [1] (setting [4]) turned out to be 28%. Besides, in experiment [2], the IC50 was 0.11 ng/mL (≈ 0.156 nM).

For the compound `COC(=O)c1c(C(F)(F)F)[nH]c2c(O)cc3c(c12)C(CCl)CN3C(=O)c1cc2cc(NC(=O)c3cc4c(cn3)[nH]c3ccccc34)ccc2[nH]1` (stereo not drawn) [Example 19, Methyl 1-chloromethyl-5-hydroxy-3-[5-[(9H-pyrido[3,4-b]indol-3-ylcarbonyl)amino]-1H-indol-2ylcarbonyl]-7-trifluoromethyl-1,2,3,6-tetrahydropyrrolo[3,2e]indole-8-carboxylate], the response vs control in vivo at 0.25 mg/kg in experiment [1] (setting [4]) was 22%. Further, the IC50 in experiment [2] was 0.11 ng/mL (≈ 0.157 nM).

Take `COC(=O)c1c(C(F)(F)F)[nH]c2c(OC(=O)N3CCN(C)CC3)cc3c(c12)C(CCl)CN3C(=O)c1cc2cc(NC(=O)c3cc4cc(OC)c(OC)c(OC)c4[nH]3)ccc2[nH]1` (stereo not drawn) [Example 51, Methyl 1-chloromethyl-5-(4-methylpiperazin-1-ylcarbonyl)oxy-7-trifluoromethyl-3-[5-[(5,6,7-trimethoxy1H-indol-2-ylcarbonyl)amino]-1H-indol-2-ylcarbonyl)-1,2,3,6tetrahydropyrrolo[3,2-e]indol, e-8-carboxylate]: in experiment [1], the response vs control in vivo at 4 mg/kg stood at 25%.

With `COC(=O)c1c(C(F)(F)F)[nH]c2c(OC(=O)N3CCN(C)CC3)cc3c(c12)C(CCl)CN3C(=O)c1cc2cc(NC(=O)c3cc4ccccc4cn3)ccc2[nH]1` (stereo not drawn) [Example 52, Methyl 1-chloromethyl-5-(4-methylpiperazin-1-ylcarbonyl)oxy-3-[5-[(isoquinolin-3-ylcarbonyl)amino]-1H-indol-2-ylcarbonyl)-7-trifluoromethyl-1,2,3,6-tetrahydropyrrolo[3,2-e]indole-8-carboxylate], the response vs control in vivo at 1 mg/kg in experiment [1] is 12%.

On to `COC(=O)c1c(C(F)(F)F)[nH]c2c(O)cc3c(c12)C(CCl)CN3C(=O)c1cc2cc(NC(=O)c3cc4cccc(OC)c4o3)ccc2[nH]1` (stereo not drawn) [Example 11, Methyl 1-chloromethyl-5-hydroxy-3-[5-[(7-methoxybenzofuran-2-ylcarbonyl)amino]-1H-indol-2-ylcarbonyl]-7-trifluoromethyl-1,2,3,6-tetrahydropyrrolo[3,2-e]indole-8-carboxylate], for which the response vs control in vivo at 1 mg/kg in experiment [1] (i.v. 1.0 mg/kg single dose, tumor weighed six days after dosage) was 6%. Besides, the IC50 in experiment [2] turned out to be 0.67 ng/mL (≈ 0.984 nM).

Turning to `COC(=O)c1c(C(F)(F)F)[nH]c2c1C13CC1CN(C(=O)c1cc4cc(NC(=O)c5cc6cc(OC)c(OC)c(OC)c6[nH]5)ccc4[nH]1)C3=CC2=O` (stereo not drawn) [Example 27, Methyl 6-trifluoromethyl-2-[5-[(5,6,7-trimethoxy-1H indol-2-ylcarbonyl)amino]-1H-indol-2-ylcarbonyl]-1,2,8,8a-tetrahydrocyclopropa[c]pyrrolo[3,2-e]indole-4 (5H)-one-7-carboxylate], the response vs control in vivo at 0.125 mg/kg in experiment [1] (setting [3]) turned out to be 19%. The IC50 in experiment [2] amounted to 0.17 ng/mL (≈ 0.242 nM).

`COC(=O)c1c(C(F)(F)F)[nH]c2c1C13CC1CN(C(=O)c1cc4cc(NC(=O)c5cc6ccccc6cn5)ccc4[nH]1)C3=CC2=O` (stereo not drawn) [Example 31, Methyl 3-[5-[(isoquinolin-3-ylcarbonyl)amino]-1H-indol-2-ylcarbonyl]-6-trifluoromethyl-1,2,8,8a-tetrahydrocyclopropa[c]pyrrolo[3,2-e]indol-4 (5H)-one-7-carboxylate]: the response vs control in vivo at 0.125 mg/kg in experiment [1] (setting [3]) amounted to 24%. For the same compound, in experiment [2], the IC50 is 0.1 ng/mL (≈ 0.16 nM).

Turning to `COC(=O)c1c(C(F)(F)F)[nH]c2c(OC(=O)N3CCN(C)CC3)cc3c(c12)C(CBr)CN3C(=O)c1cc2cc(NC(=O)c3cc4cc(OC)c(OC)c(OC)c4[nH]3)ccc2[nH]1` (stereo not drawn) [Example 53, Methyl 1-bromomethyl-5-(4-methylpiperazin-1-ylcarbonyl)oxy-7-trifluoromethyl-3-[5-[(5,6,7-trimethoxy1H-indol-2-ylcarbonyl)amino]1H-indol-2-ylcarbonyl]-1,2,3,6-tetrahydropyrrolo[3,2-e]indole-8-carboxylate], in experiment [1], the response vs control in vivo at 4 mg/kg was 20%.

Consider `COC(=O)c1c(C(F)(F)F)[nH]c2c(O)cc3c(c12)C(CBr)CN3C(=O)c1cc2cc(NC(=O)c3cc4ccccc4o3)ccc2[nH]1` (stereo not drawn) [Example 37, Methyl 3-[5-[(benzofuran-2-ylcarbonyl)amino]-1H-indol-2-ylcarbonyl]-1-bromomethyl-5-hydroxy-7-trifluoromethyl-1,2,3,6-tetrahydropyrrolo[3,2-e]indole-8-carboxylate], for which the response vs control in vivo at 0.25 mg/kg in experiment [1] (setting [4]) came to 24%. The IC50 in experiment [2] is 0.61 ng/mL (≈ 0.877 nM).

On to `COC(=O)c1c(C(F)(F)F)[nH]c2c(O)cc3c(c12)C(CCl)CN3C(=O)c1cc2cc(NC(=O)c3cc4c(OC)c(OC)c(OC)cc4nn3)ccc2[nH]1` (stereo not drawn) [Example 50, Methyl 1-chloromethyl-5-hydroxy-7-trifluoromethyl-3-[5-[(5,6,7-trimethoxycinnolin-3-ylcarbonyl)amino]-1H-indol-2-ylcarbonyl]-1,2,3,6-tetrahydropyrrolo[3,2-e]indole-8-carboxylate], for which the response vs control in vivo at 4 mg/kg in experiment [1] (i.v. 4.0 mg/kg single dose, tumor weighed six days after dosage) came to 15%. The IC50 in experiment [2] amounted to 4.5 ng/mL (≈ 5.98 nM).

Consider `COC(=O)c1c(C(F)(F)F)[nH]c2c(O)cc3c(c12)C(CBr)CN3C(=O)c1cc2cc(NC(=O)c3cc4ccccc4cn3)ccc2[nH]1` (stereo not drawn) [Example 43, Methyl 1-bromomethyl-5-hydroxy-3-[5-[(isoquinolin-3-ylcarbonyl)amino]-1H-indol-2-ylcarbonyl]-7-trifluoromethyl-1,2,3,6-tetrahydropyrrolo[3,2-e]indole-8-carboxylate], for which the response vs control in vivo at 0.125 mg/kg in experiment [1] (setting [3]) stood at 25%. Further, the IC50 in experiment [2] came to 0.1 ng/mL (≈ 0.142 nM).

With `COC(=O)c1c(C(F)(F)F)[nH]c2c(OC(=O)N3CCN(C)CC3)cc3c(c12)C(CBr)CN3C(=O)c1cc2cc(NC(=O)c3cc4ccccc4cn3)ccc2[nH]1` (stereo not drawn) [Example 54, Methyl 1-bromomethyl-5-(4-methylpiperazin-1-ylcarbonyl)oxy-3-[5-[(isoquinolin-3-ylcarbonyl)amino]-1H-indol-2-ylcarbonyl]-7-trifluoromethyl-1,2,3,6-tetrahydropyrrolo[3,2-e]indole-8-carboxylate hydrochloride salt], the response vs control in vivo at 0.25 mg/kg in experiment [1] is 15%.
